Source: PubChem BioAssay (NCI)
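Here, GI50 denotes the concentration required for 50% inhibition of growth. Definition used: TGI = concentration required for complete inhibition of growth.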

How the values were obtained:
Assay in all cases: inhibition of tumour cell growth, NCI panel, 384-well format
SNB-75 CNS = system: SNB-75 CNS
CCRF-CEM leukemia = system: CCRF-CEM leukemia
HL-60(TB) leukemia = system: HL-60(TB) leukemia
HCT-15 colon = system: HCT-15 colon
UACC-257 melanoma = system: UACC-257 melanoma
COLO 205 colon = system: COLO 205 colon
K-562 leukemia = system: K-562 leukemia
786-0 renal = system: 786-0 renal
T-47D breast = system: T-47D breast
KM12 colon = system: KM12 colon
EKVX NSCLC = system: EKVX NSCLC
MALME-3M melanoma = system: MALME-3M melanoma
NCI-H322M lung = system: NCI-H322M lung
HCC-2998 colon = system: HCC-2998 colon
SN12C renal = system: SN12C renal
SR leukemia = system: SR leukemia
NCI-H23 lung = system: NCI-H23 lung
MDA-MB-231 breast = system: MDA-MB-231 breast
OVCAR-3 ovarian = system: OVCAR-3 ovarian
SF-268 CNS = system: SF-268 CNS
HOP-62 NSCLC = system: HOP-62 NSCLC
LOX IMVI melanoma = system: LOX IMVI melanoma
NCI/ADR-RES ovarian = system: NCI/ADR-RES ovarian
RPMI-8226 leukemia = system: RPMI-8226 leukemia
NCI-H460 NSCLC = system: NCI-H460 NSCLC
M14 melanoma = system: M14 melanoma
MDA-MB-435 melanoma = system: MDA-MB-435 melanoma
HT29 colon = system: HT29 colon
NCI-H226 lung = system: NCI-H226 lung
ACHN renal = system: ACHN renal
SK-MEL-5 melanoma = system: SK-MEL-5 melanoma
BT-549 breast = system: BT-549 breast
SW-620 colon = system: SW-620 colon
OVCAR-5 ovarian = system: OVCAR-5 ovarian
TK-10 renal = system: TK-10 renal
PC-3 prostate = system: PC-3 prostate
SNB-19 CNS = system: SNB-19 CNS
A498 renal = system: A498 renal
UO-31 renal = system: UO-31 renal
SK-OV-3 ovarian = system: SK-OV-3 ovarian
SK-MEL-2 melanoma = system: SK-MEL-2 melanoma
SF-539 CNS = system: SF-539 CNS
SF-295 CNS = system: SF-295 CNS
SK-MEL-28 melanoma = system: SK-MEL-28 melanoma
RXF 393 renal = system: RXF 393 renal
HOP-92 NSCLC = system: HOP-92 NSCLC
MCF7 breast = system: MCF7 breast
A549 NSCLC = system: A549 NSCLC
NCI-H522 lung = system: NCI-H522 lung
OVCAR-4 ovarian = system: OVCAR-4 ovarian
HS 578T breast = system: HS 578T breast
UACC-62 melanoma = system: UACC-62 melanoma
HCT-116 colon = system: HCT-116 colon
MOLT-4 leukemia = system: MOLT-4 leukemia
DU-145 prostate = system: DU-145 prostate
MDA-MB-468 breast = system: MDA-MB-468 breast
U251 glioblastoma = system: U251 glioblastoma
CAKI-1 renal = system: CAKI-1 renal
IGROV1 ovarian = system: IGROV1 ovarian

Question: For `COc1nccc(-c2c(-c3ccc(F)cc3)ncn2C2CCC(O)CC2)n1` (stereo not drawn), which GI50 (SNB-75 CNS) is on record?
Answer: > 100 µM

Question: What about the TGI (SNB-75 CNS) of the same compound?
Answer: > 100 µM

Question: What about the GI50 (CCRF-CEM leukemia) of the same compound?
Answer: 50 µM

Question: What about the TGI (CCRF-CEM leukemia) of the same compound?
Answer: > 100 µM

Question: What about the GI50 (HL-60(TB) leukemia) of the same compound?
Answer: 77 µM

Question: And the TGI (HL-60(TB) leukemia)?
Answer: > 100 µM

Question: And the GI50 (HCT-15 colon)?
Answer: 58.7 µM

Question: What about the TGI (HCT-15 colon) of the same compound?
Answer: > 100 µM

Question: What about the GI50 (UACC-257 melanoma) of the same compound?
Answer: > 100 µM

Question: What about the TGI (UACC-257 melanoma) of the same compound?
Answer: > 100 µM

Question: And the GI50 (COLO 205 colon)?
Answer: > 100 µM

Question: And the TGI (COLO 205 colon)?
Answer: > 100 µM

Question: And the GI50 (K-562 leukemia)?
Answer: 36.1 µM

Question: And the TGI (K-562 leukemia)?
Answer: > 100 µM

Question: What about the GI50 ([…]-0 renal) of the same compound?
Answer: 69.8 µM

Question: What about the TGI (786-0 renal) of the same compound?
Answer: > 100 µM

Question: And the GI50 (T-47D breast)?
Answer: > 100 µM

Question: What about the TGI (T-47D breast) of the same compound?
Answer: > 100 µM

Question: What about the GI50 (KM12 colon) of the same compound?
Answer: > 100 µM

Question: And the TGI (KM12 colon)?
Answer: > 100 µM

Question: And the GI50 (EKVX NSCLC)?
Answer: > 100 µM

Question: What about the TGI (EKVX NSCLC) of the same compound?
Answer: > 100 µM

Question: What about the GI50 (MALME-3M melanoma) of the same compound?
Answer: > 100 µM

Question: And the TGI (MALME-3M melanoma)?
Answer: > 100 µM

Question: And the GI50 (NCI-H322M lung)?
Answer: > 100 µM

Question: What about the TGI (NCI-H322M lung) of the same compound?
Answer: > 100 µM

Question: And the GI50 (HCC-2998 colon)?
Answer: > 100 µM

Question: And the TGI (HCC-2998 colon)?
Answer: > 100 µM

Question: What about the GI50 (SN12C renal) of the same compound?
Answer: > 100 µM

Question: And the TGI (SN12C renal)?
Answer: > 100 µM

Question: And the GI50 (SR leukemia)?
Answer: 31.6 µM

Question: What about the TGI (SR leukemia) of the same compound?
Answer: > 100 µM

Question: And the GI50 (NCI-H23 lung)?
Answer: > 100 µM

Question: What about the TGI (NCI-H23 lung) of the same compound?
Answer: > 100 µM

Question: What about the GI50 (MDA-MB-231 breast) of the same compound?
Answer: > 100 µM

Question: And the TGI (MDA-MB-231 breast)?
Answer: > 100 µM

Question: What about the GI50 (OVCAR-3 ovarian) of the same compound?
Answer: > 100 µM

Question: What about the TGI (OVCAR-3 ovarian) of the same compound?
Answer: > 100 µM

Question: What about the GI50 (SF-268 CNS) of the same compound?
Answer: > 100 µM

Question: And the TGI (SF-268 CNS)?
Answer: > 100 µM

Question: What about the GI50 (HOP-62 NSCLC) of the same compound?
Answer: > 100 µM

Question: And the TGI (HOP-62 NSCLC)?
Answer: > 100 µM

Question: And the GI50 (LOX IMVI melanoma)?
Answer: > 100 µM

Question: And the TGI (LOX IMVI melanoma)?
Answer: > 100 µM

Question: And the GI50 (NCI/ADR-RES ovarian)?
Answer: > 100 µM

Question: What about the TGI (NCI/ADR-RES ovarian) of the same compound?
Answer: > 100 µM

Question: What about the GI50 (RPMI-8226 leukemia) of the same compound?
Answer: 90.1 µM

Question: And the TGI (RPMI-8226 leukemia)?
Answer: > 100 µM

Question: What about the GI50 (NCI-H460 NSCLC) of the same compound?
Answer: 71.6 µM

Question: What about the TGI (NCI-H460 NSCLC) of the same compound?
Answer: > 100 µM

Question: And the GI50 (M14 melanoma)?
Answer: > 100 µM

Question: What about the TGI (M14 melanoma) of the same compound?
Answer: > 100 µM

Question: And the GI50 (MDA-MB-435 melanoma)?
Answer: > 100 µM

Question: What about the TGI (MDA-MB-435 melanoma) of the same compound?
Answer: > 100 µM

Question: And the GI50 (HT29 colon)?
Answer: 46 µM

Question: What about the TGI (HT29 colon) of the same compound?
Answer: > 100 µM

Question: And the GI50 (NCI-H226 lung)?
Answer: 91.2 µM

Question: What about the TGI (NCI-H226 lung) of the same compound?
Answer: > 100 µM

Question: What about the GI50 (ACHN renal) of the same compound?
Answer: 36.3 µM

Question: And the TGI (ACHN renal)?
Answer: > 100 µM

Question: And the GI50 (SK-MEL-5 melanoma)?
Answer: 90.3 µM

Question: And the TGI (SK-MEL-5 melanoma)?
Answer: > 100 µM

Question: And the GI50 (BT-549 breast)?
Answer: > 100 µM

Question: What about the TGI (BT-549 breast) of the same compound?
Answer: > 100 µM

Question: What about the GI50 (SW-620 colon) of the same compound?
Answer: > 100 µM

Question: What about the TGI (SW-620 colon) of the same compound?
Answer: > 100 µM

Question: And the GI50 (OVCAR-5 ovarian)?
Answer: > 100 µM

Question: What about the TGI (OVCAR-5 ovarian) of the same compound?
Answer: > 100 µM

Question: And the GI50 (TK-10 renal)?
Answer: 37.4 µM

Question: What about the TGI (TK-10 renal) of the same compound?
Answer: > 100 µM

Question: And the GI50 (PC-3 prostate)?
Answer: > 100 µM

Question: And the TGI (PC-3 prostate)?
Answer: > 100 µM

Question: And the GI50 (SNB-19 CNS)?
Answer: > 100 µM

Question: What about the TGI (SNB-19 CNS) of the same compound?
Answer: > 100 µM

Question: And the GI50 (A498 renal)?
Answer: > 100 µM

Question: And the TGI (A498 renal)?
Answer: > 100 µM

Question: And the GI50 (UO-31 renal)?
Answer: 31.4 µM

Question: What about the TGI (UO-31 renal) of the same compound?
Answer: > 100 µM

Question: What about the GI50 (SK-OV-3 ovarian) of the same compound?
Answer: 62.5 µM

Question: What about the TGI (SK-OV-3 ovarian) of the same compound?
Answer: > 100 µM

Question: And the GI50 (SK-MEL-2 melanoma)?
Answer: > 100 µM

Question: And the TGI (SK-MEL-2 melanoma)?
Answer: > 100 µM

Question: What about the GI50 (SF-539 CNS) of the same compound?
Answer: > 100 µM

Question: And the TGI (SF-539 CNS)?
Answer: > 100 µM

Question: What about the GI50 (SF-295 CNS) of the same compound?
Answer: > 100 µM

Question: What about the TGI (SF-295 CNS) of the same compound?
Answer: > 100 µM

Question: And the GI50 (SK-MEL-28 melanoma)?
Answer: > 100 µM

Question: And the TGI (SK-MEL-28 melanoma)?
Answer: > 100 µM

Question: And the GI50 (RXF 393 renal)?
Answer: > 100 µM

Question: And the TGI (RXF 393 renal)?
Answer: > 100 µM

Question: What about the GI50 (HOP-92 NSCLC) of the same compound?
Answer: > 100 µM

Question: And the TGI (HOP-92 NSCLC)?
Answer: > 100 µM

Question: What about the GI50 (MCF7 breast) of the same compound?
Answer: 36.2 µM

Question: And the TGI (MCF7 breast)?
Answer: > 100 µM

Question: And the GI50 (A549 NSCLC)?
Answer: 39.2 µM

Question: And the TGI (A549 NSCLC)?
Answer: > 100 µM

Question: What about the GI50 (NCI-H522 lung) of the same compound?
Answer: 22.6 µM

Question: And the TGI (NCI-H522 lung)?
Answer: 93.5 µM

Question: And the GI50 (OVCAR-4 ovarian)?
Answer: > 100 µM

Question: And the TGI (OVCAR-4 ovarian)?
Answer: > 100 µM

Question: And the GI50 (HS 578T breast)?
Answer: > 100 µM

Question: And the TGI (HS 578T breast)?
Answer: > 100 µM

Question: And the GI50 (UACC-62 melanoma)?
Answer: > 100 µM

Question: What about the TGI (UACC-62 melanoma) of the same compound?
Answer: > 100 µM

Question: What about the GI50 (HCT-116 colon) of the same compound?
Answer: > 100 µM

Question: And the TGI (HCT-116 colon)?
Answer: > 100 µM

Question: And the GI50 (MOLT-4 leukemia)?
Answer: 29.5 µM

Question: And the TGI (MOLT-4 leukemia)?
Answer: > 100 µM

Question: What about the GI50 (DU-145 prostate) of the same compound?
Answer: > 100 µM

Question: What about the TGI (DU-145 prostate) of the same compound?
Answer: > 100 µM

Question: And the GI50 (MDA-MB-468 breast)?
Answer: 13.2 µM

Question: What about the TGI (MDA-MB-468 breast) of the same compound?
Answer: > 100 µM

Question: And the GI50 (U251 glioblastoma)?
Answer: > 100 µM

Question: And the TGI (U251 glioblastoma)?
Answer: > 100 µM

Question: And the GI50 (CAKI-1 renal)?
Answer: 31.7 µM

Question: And the TGI (CAKI-1 renal)?
Answer: > 100 µM

Question: What about the GI50 (IGROV1 ovarian) of the same compound?
Answer: 38.5 µM

Question: What about the TGI (IGROV1 ovarian) of the same compound?
Answer: > 100 µM
